Tests used:
Assay in all cases: cell-based
Na^+, K^+-ATPase [1] = target: T1, Na^+, K^+-ATPase (Homo sapiens, UniProt P05023); conditions: for inhibition at 0.01 µM / inhibition at 0.1 µM / inhibition at 1 µM / inhibition at 5 µM / inhibition at 10 µM / inhibition at 50 µM: HEK293, HEK-293; for inhibition at 0.01 µM: Log[drug](M) −8.0; for inhibition at 5 µM: Log[drug](M) −5.3; for inhibition at 10 µM: Log[drug](M) −5.0; for inhibition at 50 µM: Log[drug](M) −4.3; for Rank order: HEK-293, ranked on potency (IC50 value); for Sample Solubility: HEK-293 screen test wells, 1% DMSO
T1 construct: The HEK-293 cell line endogenously expressing Na^+, K^+-ATPase; endogenous in cells; host or cells: HEK-293
Method: Cells were plated at a density of 50,000 cells/well in 96-well microplates and incubated at 37° C., 5% CO2 until 80-90% confluency was attained

Na^+, K^+-ATPase [2] = conditions: for Sample Solubility: CHO-K1 screen test wells, 1% DMSO; for Inhibition (%) / Normalized Uptake (%): CHO-K1
Method: (§1) Compounds were screened using Ion Channel Research (ICR) technology and a non-radioactive Rubidium Uptake Assay
(§2) For all the test compounds and standard blockers, 100× solutions were used to prepare 1× test doses for Na^+, K^+-ATPase screen in CHO cell line. The final DMSO concentration in each well was 1%.
(§3) • 1. […] Rb^+ Uptake: Cells were washed with 200 μl of Rb^+ Uptake Buffer once and R^+ loaded by application of 198 μl R^+ Uptake Buffer. Compounds were added at 2 μl/well of a 100× stock solution in 100% DMSO in the uptake buffer followed by incubation for 30 minutes at room temperature (c. 22° C.). The total volume in each well was 200 μl (198 μl of R^+ Uptake Buffer and 2 μl of the 100× compound). The 100× compound solution gets diluted in R^+ Uptake Buffer to 1× and the DMSO to 1%. • 3. Wash: Residual R^+ and compound were removed by four successive washes with 200 μl of SPA-Wash Buffer. • 4. Cell Lysis: Intracellular samples were obtained by whole cell lysis with the application of 200 μl Lysis Solution. • 5. Analysis: The level of R^+ in the intracellular samples was measured by ICR8000 (Aurora Biomed Inc., Vancouver, Canada). using flame atomic absorption spectroscopy.

Na^+, K^+-ATPase [3] = target: Na^+, K^+-ATPase (Cricetulus griseus, UniProt A0A8C2N4Z0); conditions: for inhibition at 0.5 µM / inhibition at 1 µM / inhibition at 5 µM / inhibition at 10 µM / inhibition at 50 µM / inhibition at 100 µM / inhibition at 200 µM / inhibition at 500 µM: CHO-K1; for remaining activity at 0.5 µM / remaining activity at 1 µM / remaining activity at 5 µM / remaining activity at 10 µM / remaining activity at 50 µM / remaining activity at 100 µM / remaining activity at 200 µM / remaining activity at 500 µM: CHO-K1, 0.5 h, read-out: Normalized Uptake (%)
Method: as §1, §2, §3

| SMILES | IC50 (Na^+, K^+-ATPase [1]) [µM] | inhibition at 0.01 µM (Na^+, K^+-ATPase [1]) [%] | inhibition at 0.1 µM (Na^+, K^+-ATPase [1]; Log[drug](M) −7.0) [%] | inhibition at 0.1 µM (Na^+, K^+-ATPase [1]; Log[drug](M) −7.3) [%] | inhibition at 1 µM (Na^+, K^+-ATPase [1]; Log[drug](M) −6.0) [%] | inhibition at 1 µM (Na^+, K^+-ATPase [1]; Log[drug](M) −6.3) [%] | inhibition at 5 µM (Na^+, K^+-ATPase [1]) [%] | inhibition at 10 µM (Na^+, K^+-ATPase [1]) [%] | inhibition at 50 µM (Na^+, K^+-ATPase [1]) [%] | Rank order (Na^+, K^+-ATPase [1]) | Sample Solubility (Na^+, K^+-ATPase [1]) | Sample Solubility (Na^+, K^+-ATPase [2]) | IC50 (Na^+, K^+-ATPase [3]) [µM] | inhibition at 0.5 µM (Na^+, K^+-ATPase [3]) [%] | remaining activity at 0.5 µM (Na^+, K^+-ATPase [3]) [%] | Inhibition (%) (Na^+, K^+-ATPase [2]; dose 1.0 uM) | Normalized Uptake (%) (Na^+, K^+-ATPase [2]; dose 1.0 uM) | Inhibition (%) (Na^+, K^+-ATPase [2]; dose 5.0 uM) | Normalized Uptake (%) (Na^+, K^+-ATPase [2]; dose 5.0 uM) | Inhibition (%) (Na^+, K^+-ATPase [2]; dose 10 uM) | also measured |
| --- | --- | --- | --- | --- | --- | --- | --- | --- | --- | --- | --- | --- | --- | --- | --- | --- | --- | --- | --- | --- | --- |
| C[C@]12CCC(=NOCCN3CCOCC3)C=C1CCC1C2CC[C@]2(C)[C@@H](c3ccc(=O)oc3)CC[C@]12O (stereo partly drawn) [BP245, 3-[2-(Morpholinoethoxy)imino]-scillarinone] | 0.732 | 0 | 22.1 | 8.3 | 56 | 36 | 92.3 | 94.1 | 100 | 2 | Good | Good | 93.2 | 0 | 98.9 |  |  |  |  |  | inhibition at 1 µM (Na^+, K^+-ATPase [3]): 2.9%; inhibition at 5 µM (Na^+, K^+-ATPase [3]): 4.2%; inhibition at 10 µM (Na^+, K^+-ATPase [3]): 6.6%; inhibition at 50 µM (Na^+, K^+-ATPase [3]): 23.7%; inhibition at 100 µM (Na^+, K^+-ATPase [3]): 44.9%; inhibition at 200 µM (Na^+, K^+-ATPase [3]): 86.5%; inhibition at 500 µM (Na^+, K^+-ATPase [3]): 100%; remaining activity at 1 µM (Na^+, K^+-ATPase [3]): 96.9%; remaining activity at 5 µM (Na^+, K^+-ATPase [3]): 96%; remaining activity at 10 µM (Na^+, K^+-ATPase [3]): 94.3%; remaining activity at 50 µM (Na^+, K^+-ATPase [3]): 82.4%; remaining activity at 100 µM (Na^+, K^+-ATPase [3]): 67.6%; remaining activity at 200 µM (Na^+, K^+-ATPase [3]): 38.7%; remaining activity at 500 µM (Na^+, K^+-ATPase [3]): 29.3% |
| C[C@]12CCC(=NOCCCN3CCCCC3)C=C1CCC1C2CC[C@]2(C)[C@@H](c3ccc(=O)oc3)CC[C@]12O (stereo partly drawn) [BP246, 3-[3-(Piperidinopropoxy)imino]-scillarinone] | 0.335 | 0 | 28.5 | 13.9 | 79.1 | 48.5 | 96.3 | 96.1 | 100 | 1 | Good | Good | 57.8 | 0 | 95.3 |  |  |  |  |  | inhibition at 1 µM (Na^+, K^+-ATPase [3]): 2.2%; inhibition at 5 µM (Na^+, K^+-ATPase [3]): 12%; inhibition at 10 µM (Na^+, K^+-ATPase [3]): 21.5%; inhibition at 50 µM (Na^+, K^+-ATPase [3]): 42%; inhibition at 100 µM (Na^+, K^+-ATPase [3]): 64.7%; inhibition at 200 µM (Na^+, K^+-ATPase [3]): 89.3%; inhibition at 500 µM (Na^+, K^+-ATPase [3]): 100%; remaining activity at 1 µM (Na^+, K^+-ATPase [3]): 93.4%; remaining activity at 5 µM (Na^+, K^+-ATPase [3]): 84.8%; remaining activity at 10 µM (Na^+, K^+-ATPase [3]): 76.6%; remaining activity at 50 µM (Na^+, K^+-ATPase [3]): 58.7%; remaining activity at 100 µM (Na^+, K^+-ATPase [3]): 39%; remaining activity at 200 µM (Na^+, K^+-ATPase [3]): 17.5%; remaining activity at 500 µM (Na^+, K^+-ATPase [3]): 8.2% |
| C[C@]12CCC(=NOCCCCN3CCCCC3)C=C1CCC1C2CC[C@]2(C)[C@@H](c3ccc(=O)oc3)CC[C@]12O (stereo partly drawn) [BP247, 3-[4-(Piperidinobutoxy)imino]-scillarinone] | 0.183 | 0 | 44.9 | 17.1 | 79.9 | 68.4 | 94.8 | 93.5 | 100 | 1 | Good | Good | 47.4 | 0 | 96 | −0.3 | 96.2 | 9.2 | 88.2 | 15.2 | Normalized Uptake (%) (Na^+, K^+-ATPase [2]; dose 10 uM): 83.2%; Inhibition (%) (Na^+, K^+-ATPase [2]; dose 50 uM): 44.9%; Normalized Uptake (%) (Na^+, K^+-ATPase [2]; dose 50 uM): 58.3%; Inhibition (%) (Na^+, K^+-ATPase [2]; dose 100 uM): 67.7%; Normalized Uptake (%) (Na^+, K^+-ATPase [2]; dose 100 uM): 39.0%; Inhibition (%) (Na^+, K^+-ATPase [2]; dose 200 uM): 89.0%; Normalized Uptake (%) (Na^+, K^+-ATPase [2]; dose 200 uM): 21.1%; Inhibition (%) (Na^+, K^+-ATPase [2]; dose 500 uM): 100.0%; Normalized Uptake (%) (Na^+, K^+-ATPase [2]; dose 500 uM): 11.9% |
| C[C@]12CCC(=NOCCCCCN3CCCCC3)C=C1CCC1C2CC[C@]2(C)[C@@H](c3ccc(=O)oc3)CC[C@]12O (stereo partly drawn) [BP248, 3-[5-(Piperidinopentoxy)imino]-scillarinone] | 5.55 | 0 | 1.7 | 0.8 | 10.1 | 4.5 | 44.7 | 74 | 100 | 4 | Good | Good | 27.9 |  |  | 0.0 | 105.6 | 9.1 | 96.6 | 27.0 | Inhibition (%) (Na^+, K^+-ATPase [2]; dose 0.50 uM): 1.3%; Normalized Uptake (%) (Na^+, K^+-ATPase [2]; dose 0.50 uM): 104.5%; Normalized Uptake (%) (Na^+, K^+-ATPase [2]; dose 10 uM): 81.1%; Inhibition (%) (Na^+, K^+-ATPase [2]; dose 50 uM): 61.2%; Normalized Uptake (%) (Na^+, K^+-ATPase [2]; dose 50 uM): 51.5%; Inhibition (%) (Na^+, K^+-ATPase [2]; dose 100 uM): 84.1%; Normalized Uptake (%) (Na^+, K^+-ATPase [2]; dose 100 uM): 31.6%; Inhibition (%) (Na^+, K^+-ATPase [2]; dose 200 uM): 94.0%; Normalized Uptake (%) (Na^+, K^+-ATPase [2]; dose 200 uM): 23.1%; Inhibition (%) (Na^+, K^+-ATPase [2]; dose 500 uM): 100.0%; Normalized Uptake (%) (Na^+, K^+-ATPase [2]; dose 500 uM): 17.9% |
| C[C@H]1O[C@@H](O[C@H]2[C@@H](O)C[C@H](O[C@H]3[C@@H](O)C[C@H](O[C@H]4CC[C@@]5(C)[C@H](CC[C@@H]6[C@@H]5CC[C@]5(C)[C@@H](C7=CC(=O)OC7)CC[C@]65O)C4)O[C@@H]3C)O[C@@H]2C)C[C@H](O)[C@@H]1O [Digitoxin, reference compound] | 1.1 |  |  |  |  |  |  |  |  | 2 |  |  | 44.9 |  |  | 6.2 | 93.8 | 8.6 | 91.4 | 19.8 | Inhibition (%) (Na^+, K^+-ATPase [2]; dose 0.50 uM): 0.0%; Normalized Uptake (%) (Na^+, K^+-ATPase [2]; dose 0.50 uM): 100.0%; Normalized Uptake (%) (Na^+, K^+-ATPase [2]; dose 10 uM): 80.2%; Inhibition (%) (Na^+, K^+-ATPase [2]; dose 50 uM): 51.9%; Normalized Uptake (%) (Na^+, K^+-ATPase [2]; dose 50 uM): 48.1%; Inhibition (%) (Na^+, K^+-ATPase [2]; dose 100 uM): 76.8%; Normalized Uptake (%) (Na^+, K^+-ATPase [2]; dose 100 uM): 23.2%; Inhibition (%) (Na^+, K^+-ATPase [2]; dose 500 uM): 89.7%; Normalized Uptake (%) (Na^+, K^+-ATPase [2]; dose 500 uM): 10.3%; Inhibition (%) (Na^+, K^+-ATPase [2]; dose 1000 uM): 100.0%; Normalized Uptake (%) (Na^+, K^+-ATPase [2]; dose 1000 uM): 0.0% |
